In patent US12062444B2, “Methods and compositions related to triple-negative breast cancer” (THE UNIVERSITY OF CHICAGO, priority 2017, dated 2024):
“Also recorded” adds a separate entry of the source. Read-outs that look alike come from different tables or passages of the source.

How the values were obtained:
[1] = molecular target: T1, GR LBD (Homo sapiens, UniProt P04150); test: Ligand titration assay via fluorescence polarimetry (displacement of F-Dex); format: binding; settings: for Fit of FP dose response curve (half-maximal FP signal): log(inhibitor) vs. normalized response, FIG. 7
T1 construct: The wild-type GR-LBD (amino acid residues 522-777) was cloned into a pFASTBAC plasmid; 6X-His (TEV-cleavable) (cleaved yes); made in house; host or cells: SF9 insect cells (baculovirus, pFASTBAC)
T1 sequence (P04150 522-777): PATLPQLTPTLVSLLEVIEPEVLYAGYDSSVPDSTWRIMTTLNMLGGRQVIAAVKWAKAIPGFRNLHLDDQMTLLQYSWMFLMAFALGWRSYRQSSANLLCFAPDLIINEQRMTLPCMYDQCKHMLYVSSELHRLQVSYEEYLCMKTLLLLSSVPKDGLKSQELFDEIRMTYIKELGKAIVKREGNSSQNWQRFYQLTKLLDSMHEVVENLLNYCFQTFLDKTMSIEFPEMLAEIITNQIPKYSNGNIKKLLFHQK
Description: SF9 insect cells were transfected with recombinant bacmid and virus (collected after 6 days) was amplified prior to protein expression. […] GR-LBD was purified first using Ni-affinity chromatography followed by overnight dialysis with TEV protease to remove the His tag. Extensive dialysis into 20 mM TRIS pH 8.0, 500 mM NaCl, 5% glycerol, 0.1% CHAPS, 0.25 mM TCEP was performed to obtain non-ligand-bound GR LBD. […] The purified proteins were concentrated to 5 mg/ml, flash frozen in 50 ul aliquots in N2(l), and stored at −80C.
GR LBD was diluted in assay buffer (20 mM TRIS pH 7.5, 50 mM NaCl, 0.25 mM TCEP) to a concentration of 50 nM. […] Triplicate FP measurements were scaled to maximal FP and averaged for each ligand concentration.

[2] = tested on: MDA-MB-231 tumor xenograft; test: Murine TNBC xenograft, tumor re-growth after treatment; format: in vivo, SCID mice
Description: MDA-MB-231 tumors were established in the right pectoral mammary gland of n=23 five- or six-week old female SCID mice (Taconic). Tumor volume was measured by caliper and then calculated using the elliptical volume equation (43). […] Tumor volume was measured by caliper until reaching a volume of approximately 2000 mm^3 or 40 days post-treatment initiation. Tumor data were analyzed using the repeated measures ANOVA using SigmaPlot 11.2 (Systat Software), and p-values between treatment groups over time were obtained using the Holm-Sidak post-hoc test.
Next, we studied the in vivo effect of GR activity in paclitaxel-treated GR+TNBC-bearing female SCID mice (n=23). MDA-MB-231 xenograft tumors were established subcutaneously in the mammary fat pad of 6-week old female mice. […] The mice were treated daily for five days with intraperitoneally with C297 (or vehicle), one hour prior to paclitaxel. The one-hour pre-treatment of the GR modulator was intended to compete with endogenous GC (murine corticosterone and cortisol (68)) bound to the tumor cell GR LBD. The 5 sequential dosing was selected to mimic an intensive adjuvant chemotherapy schedule often used in early-stage TNBC. Following cessation of the 5d treatment, time to tumor xenograft re-growth was measured as a readout for time to relapse post-treatment (43, 46).

[3] = tested on: GR-regulated gene expression in MDA-MB-231 cells; test: Gene expression microarray and analysis; format: cell-based, human
Description: MDA-MB-231 cells were grown to 80% confluence in 15-cm dishes in DMEM with 10% FBS. […] Following compound exposure, cells were washed in PBS, and lysed in RNA lysis buffer (Qiagen) overnight at -80° C. RNA extraction, with accompanying DNase treatment, was performed using the RNeasy kit (Qiagen) following the manufacturer's protocol. […] The University of Chicago Genomics Core facility carried out the reverse transcription on the samples, followed by microarray using the Affymetrix Human U133 Plus 2.0 platform. […] A principal components analysis (PCA) was performed using the prcomp function in R (Q-mode PCA using singular value decomposition). […] Dex-regulated genes were overlapped with a list of n=5,170 differentially-expressed tumor-derived genes (in the same direction) from GR-high versus GR-low BCs (52). Ingenuity Pathway Analysis (Qiagen) of the n=462 patient-relevant and antagonist-inhibited genes was performed to obtain Activation Z-scores of the most significant Diseases and Biofunctions (cell functions).

[4] = tested on: MDA-MB-231 cells
Description: (§1) After compound treatment, cells were fixed in 10% trichloroacetic acid (TCA) at 4° C. overnight. […] Absorbance at λ=510 nm was measured, and relative percentage dead/alive cells was calculated based on minimal and maximal optical densities measured per plate. The experiment was performed in three biological replicates per cell line. P-values comparing the means of cell death percentages were obtained using the two-sample Student's t-test (Graphpad).

[5] = tested on: SUM-159-PT cells; settings: Pac 10 nM, Dex 100 nM, C297 1 μM; 72 hours
Description: as §1

[6] = molecular target: T2, mineralocorticoid receptor (Homo sapiens, UniProt P08235); settings: cited from earlier work
T2 sequence (P08235 1-984): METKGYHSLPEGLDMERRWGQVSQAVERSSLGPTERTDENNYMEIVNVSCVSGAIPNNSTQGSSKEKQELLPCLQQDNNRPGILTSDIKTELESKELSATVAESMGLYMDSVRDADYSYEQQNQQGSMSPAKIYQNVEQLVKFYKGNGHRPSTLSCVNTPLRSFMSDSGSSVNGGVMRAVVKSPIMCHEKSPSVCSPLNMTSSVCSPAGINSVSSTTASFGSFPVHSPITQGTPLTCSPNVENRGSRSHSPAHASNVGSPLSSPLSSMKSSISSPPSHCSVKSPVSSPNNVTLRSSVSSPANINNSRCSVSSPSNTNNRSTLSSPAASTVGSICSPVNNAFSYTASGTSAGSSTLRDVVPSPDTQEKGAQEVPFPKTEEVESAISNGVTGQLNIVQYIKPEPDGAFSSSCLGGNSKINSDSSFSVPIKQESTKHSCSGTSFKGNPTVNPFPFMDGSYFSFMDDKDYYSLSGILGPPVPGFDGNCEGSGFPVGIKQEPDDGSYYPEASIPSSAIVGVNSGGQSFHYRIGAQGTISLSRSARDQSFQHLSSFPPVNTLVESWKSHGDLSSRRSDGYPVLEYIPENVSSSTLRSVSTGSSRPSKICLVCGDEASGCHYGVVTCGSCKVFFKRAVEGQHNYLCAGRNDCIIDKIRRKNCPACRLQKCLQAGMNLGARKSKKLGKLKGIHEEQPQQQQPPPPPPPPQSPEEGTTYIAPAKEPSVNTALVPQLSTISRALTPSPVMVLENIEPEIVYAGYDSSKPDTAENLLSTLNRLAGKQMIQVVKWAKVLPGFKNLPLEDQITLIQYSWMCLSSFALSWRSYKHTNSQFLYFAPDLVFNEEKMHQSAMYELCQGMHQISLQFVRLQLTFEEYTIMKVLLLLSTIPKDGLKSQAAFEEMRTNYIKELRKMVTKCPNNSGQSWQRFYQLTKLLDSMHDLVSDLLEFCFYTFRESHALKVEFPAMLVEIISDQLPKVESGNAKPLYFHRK

[7] = molecular target: T3, GR (Homo sapiens, UniProt P04150); settings: cited from earlier work
T3 sequence (P04150 1-777): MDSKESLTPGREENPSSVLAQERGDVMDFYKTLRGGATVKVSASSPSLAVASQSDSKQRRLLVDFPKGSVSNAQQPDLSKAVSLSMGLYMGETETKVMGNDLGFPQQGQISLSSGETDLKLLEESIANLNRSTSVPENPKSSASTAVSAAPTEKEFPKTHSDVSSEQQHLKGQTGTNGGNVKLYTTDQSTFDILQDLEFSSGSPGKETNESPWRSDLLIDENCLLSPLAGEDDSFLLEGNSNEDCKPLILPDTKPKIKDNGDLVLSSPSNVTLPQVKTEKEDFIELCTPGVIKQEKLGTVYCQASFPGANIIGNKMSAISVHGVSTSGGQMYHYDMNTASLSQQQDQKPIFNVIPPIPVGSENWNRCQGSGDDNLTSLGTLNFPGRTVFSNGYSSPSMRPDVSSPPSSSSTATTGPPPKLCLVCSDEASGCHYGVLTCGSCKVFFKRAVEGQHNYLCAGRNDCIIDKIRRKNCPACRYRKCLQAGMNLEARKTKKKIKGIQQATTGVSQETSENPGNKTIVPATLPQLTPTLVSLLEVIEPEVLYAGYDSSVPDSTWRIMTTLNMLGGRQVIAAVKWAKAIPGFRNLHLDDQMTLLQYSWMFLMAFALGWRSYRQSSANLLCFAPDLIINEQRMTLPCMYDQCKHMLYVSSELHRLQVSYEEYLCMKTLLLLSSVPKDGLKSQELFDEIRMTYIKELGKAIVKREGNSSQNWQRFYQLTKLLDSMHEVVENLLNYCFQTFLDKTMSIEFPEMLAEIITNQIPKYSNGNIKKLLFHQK

[8] = tested on: GR chromatin association in MDA-MB-231 cells; test: GR ChIP-sequencing and analysis; format: cell-based, human; settings: 100 nM each, 60 minutes, normalized to vehicle
Description: MDA-MB-231 cells were grown to 80% confluence in 15-cm dishes in DMEM with 10% FBS, followed by 48h in DMEM supplemented with 2.5% charcoal-stripped FBS. […] Cells were cross-linked with 1% formaldehyde, quenched with glycine (final concentration of […]), and harvested. After cell lysis with ChIP lysis buffer (Magna ChIP A Chromatin Immunoprecipitation Kit, EMD Millipore), cells were sonicated to achieve the majority of DNA fragments between 200-400 bp. Input samples were preserved at -80° C. […] Following manufacturer's protocol, chromatin was eluted from GR ChIP and input samples. Library build and sequencing was performed at the University of Oregon Genomics Core facility using the NextSeq 500 sequencer. Quality control on sequences and adapter sequencing trimming was performed using Kapa Biosystems Illumina Library Quantification Kit. ChIP-seq analysis was carried out using the Galaxy platform (usegalaxy.org (111)). […] GR peaks for each treatment were normalized to its own input control sample. […] Selected GR peak locations in hg19 and GR peak maps were also individually analyzed using Integrative Genomics Viewer, IGV (Broad Institute (116)).

[9] = 50 nM GR LBD, 10 nM F-Dex, ligand 0 to 4000 nM
[10] = at least 1.3 fold-change over vehicle, 100 nM each, 4, 8 and 12 hours combined

With CCOC[C@]12Cc3cnn(-c4ccc(F)cc4)c3C=C1CCN(S(=O)(=O)c1ccc(C(F)(F)F)cc1)C2 [C297] the “Displacement of fluorescently-labeled Dex (F-Dex) from the GR LBD” value (“Displacement … from the GR LBD” below) [1, 9] was “low nM affinities”, the “Fit of FP dose response curve (half-maximal FP signal)” value (“Fit of FP dose response curve” below) [1] was “able to fit data” and the “Tumor re-growth with C297 monotherapy in vivo” value ([2]; C297/Veh versus vehicle control, FIG. 8B) was “not cytotoxic; also recorded: did not cause a significant delay in tumor re-growth”. For the same compound, the “Genes for which both GR modulators antagonized GR induction or repression by at least 25%” value ([3]; 100 nM with 100 nM Dex) was 3,066, the “Antagonized GR-regulated genes shared with the other antagonist” value ([3]; C297 versus Mif, 100 nM) was 87% and the “Cell viability with C297 treatment alone in vitro” value ([4]; monotherapy, SRB assay, FIG. 8A, cell line not stated) was “not cytotoxic; also recorded: did not reduce cell viability”. For the same compound, the “Paclitaxel cytotoxicity (percentage cell death)” value [5] was “restored cytotoxic sensitivity; also recorded: modest, but significant, relative increase in paclitaxel cytotoxicity”.
In the case of O=c1[nH]c(=O)c(Cc2cccc(C(F)(F)F)c2)c([C@H]2CC[C@H](c3ccccc3)CC2)[nH]1 [C335], the “Displacement … from the GR LBD” value [1, 9] is given as “low nM affinities”, the “Fit of FP dose response curve” value [1] is given as “able to fit data” and the “Binding to the mineralocorticoid receptor” value [6] is given as “bind the mineralocorticoid receptor”.
For CNCC(Cl)c1ccc(OC(C)=O)cc1.Cl (stereo not drawn) [CpdA], the “Displacement … from the GR LBD” value [1, 9] was “did not displace F-Dex from the GR LBD”, the “Displacement … from the GR LBD” value ([1]; 50 nM GR LBD, 10 nM F-Dex, ligand 0 to 4000 nM, listed as Compound A) was “does not bind to ligand pocket” and the “Fit of FP dose response curve” value [1] was “does not bind the GR LBD”. For the same compound, the “Displacement of H^3-Dex in cell lysates” value [7] was “displace H^3-Dex in cell lysates”.
For C[C@]12CCC(=O)C[C@@H]1CC[C@@H]1[C@@H]2CC[C@]2(C)[C@@H](O)CC[C@@H]12 [DHT, dihydrotestosterone], the “Displacement … from the GR LBD” value [1] was “did not observe GC competition”.
In the case of C[C@@H]1C[C@H]2[C@@H]3CCC4=CC(=O)C=C[C@]4(C)[C@@]3(F)[C@@H](O)C[C@]2(C)[C@@]1(O)C(=O)CO [Dex, dexamethasone], the “Downregulated GC-mediated genes unique to Dex treatment” value ([3]; FIG. 9A) is reported as 41%, the “Downregulated GC-mediated genes unique to Dex treatment, number” value ([3]; FIG. 9A) is reported as 1321 and the “Upregulated GC-mediated genes unique to Dex treatment” value ([3]; FIG. 9A) is reported as 50%. The “Upregulated GC-mediated genes unique to Dex treatment, number” value ([3]; FIG. 9A) was 1363, the “Number of downregulated genes” value [3, 10] was 3,202 and the “Number of upregulated genes” value [3, 10] was 2,719. The “Genome-wide GR peaks” value [8] was 8,448, the “Paclitaxel cytotoxicity (percentage cell death)” value ([4]; Pac 10 nM, Dex 100 nM, C297 1 μM, 96 hours) was “dampened paclitaxel (10 nM) cytotoxicity” and the “Paclitaxel cytotoxicity (percentage cell death)” value [5] was “dampened paclitaxel (10 nM) cytotoxicity”.
For CC(=O)O[C@H]1C(=O)[C@@]2(C)[C@H]([C@H](OC(=O)c3ccccc3)[C@]3(O)C[C@H](OC(=O)[C@H](O)[C@@H](NC(=O)c4ccccc4)c4ccccc4)C(C)=C1C3(C)C)[C@]1(OC(C)=O)CO[C@@H]1C[C@@H]2O [Pac, paclitaxel], the Post-treatment tumor re-growth ([2]; C297 20 mg/kg/day one hour prior to pac 10 mg/kg/day, five days) was “significantly smaller than vehicle” and the “Time to tumor re-growth to a 6× increase of tumor volume” value ([2]; C297 20 mg/kg/day one hour prior to pac 10 mg/kg/day, five days, i.p.) was 27 days.
In the case of C[C@]12CCC(=O)C=C1CC[C@@H]1[C@@H]2[C@@H](O)C[C@@]2(C)[C@H]1CC[C@]2(O)C(=O)CO [cortisol], the “Fit of FP dose response curve” value [1] is reported as “able to fit data”.
